In article PMC5218480 (PLoS ONE, 2017):

Test system: MV-4-11 cells
Experiment: Gene expression microarray analysis (Affymetrix PrimeView) and GSEA
Type: cell-based, human
Set-up: RFU PODN (11730768_x_at) / Fold change /veh PODN (11730768_x_at) / RFU LINC00158 (11744669_a_at) / Fold change /veh LINC00158 (11744669_a_at) / RFU DUSP10 (11751237_a_at) / Fold change /veh DUSP10 (11751237_a_at) / RFU ID3 (11757404_x_at) / Fold change /veh ID3 (11757404_x_at) / RFU PLEKHG5 (11737974_s_at) / Fold change /veh PLEKHG5 (11737974_s_at) / RFU LRRC4B (11730491_at) / Fold change /veh LRRC4B (11730491_at) / RFU GIMAP4 (11747438_a_at) / Fold change /veh GIMAP4 (11747438_a_at) / RFU KRT8 (11758183_x_at) / Fold change /veh KRT8 (11758183_x_at) / RFU CNN1 (11734310_a_at) / Fold change /veh CNN1 (11734310_a_at) / RFU VPS37D (11726825_at) / Fold change /veh VPS37D (11726825_at) / RFU C10orf10 (11716522_x_at) / Fold change /veh C10orf10 (11716522_x_at) / RFU KIR2DL2 /// KIR2DL4 /// KIR2DL5A /// KIR2DL5B /// KIR2DS1 /// KIR2DS2 /// KIR2DS3 /// KIR2DS4 /// KIR3DL3 /// KIR3DL3 /// KIR3DS1 (11738374_at) / Fold change /veh KIR2DL2 /// KIR2DL4 /// KIR2DL5A /// KIR2DL5B /// KIR2DS1 /// KIR2DS2 /// KIR2DS3 /// KIR2DS4 /// KIR3DL3 /// KIR3DL3 /// KIR3DS1 (11738374_at) / RFU C1QL1 (11718748_at) / Fold change /veh C1QL1 (11718748_at) / RFU TMPRSS4 (11747572_a_at) / Fold change /veh TMPRSS4 (11747572_a_at) / RFU HAMP (11756126_x_at) / Fold change /veh HAMP (11756126_x_at) / RFU RNFT2 (11725882_a_at) / Fold change /veh RNFT2 (11725882_a_at) / RFU NR4A2 (11747474_a_at) / Fold change /veh NR4A2 (11747474_a_at) / RFU ABCC12 (11746883_a_at) / Fold change /veh ABCC12 (11746883_a_at) / RFU TMEM136 (11760407_x_at) / Fold change /veh TMEM136 (11760407_x_at) / RFU CLDN22 /// WWC2 (11732394_at) / Fold change /veh CLDN22 /// WWC2 (11732394_at) / RFU HLA-DPB1 (11760878_x_at) / Fold change /veh HLA-DPB1 (11760878_x_at) / RFU SPINT1 (11716480_a_at) / Fold change /veh SPINT1 (11716480_a_at) / RFU GAP43 (11754022_s_at) / Fold change /veh GAP43 (11754022_s_at) / RFU A4GNT (11735810_at) / Fold change /veh A4GNT (11735810_at) / RFU PRB3 (11715151_x_at) / Fold change /veh PRB3 (11715151_x_at) / RFU TUBB4B (11761932_at) / Fold change /veh TUBB4B (11761932_at) / RFU CAPN14 (11732068_a_at) / Fold change /veh CAPN14 (11732068_a_at) / RFU TMCC2 (11721928_a_at) / Fold change /veh TMCC2 (11721928_a_at) / RFU IRGQ (11745062_a_at) / Fold change /veh IRGQ (11745062_a_at) / RFU FAM174B (11720279_a_at) / Fold change /veh FAM174B (11720279_a_at) / RFU TMPRSS4 (11748680_a_at) / Fold change /veh TMPRSS4 (11748680_a_at) / RFU FAM212B (11763350_a_at) / Fold change /veh FAM212B (11763350_a_at) / RFU PLEKHG5 (11743358_a_at) / Fold change /veh PLEKHG5 (11743358_a_at) / RFU ZSCAN30 (11745921_a_at) / Fold change /veh ZSCAN30 (11745921_a_at) / RFU CMKLR1 (11741424_a_at) / Fold change /veh CMKLR1 (11741424_a_at) / RFU LOC101060620 /// MAPK8IP1 (11723275_at) / Fold change /veh LOC101060620 /// MAPK8IP1 (11723275_at) / RFU SPTSSB (11747773_x_at) / Fold change /veh SPTSSB (11747773_x_at) / RFU PRSS12 (11739890_at) / Fold change /veh PRSS12 (11739890_at) / RFU BIN1 (11741810_x_at) / Fold change /veh BIN1 (11741810_x_at) / RFU WNT11 (11732464_a_at) / Fold change /veh WNT11 (11732464_a_at) / RFU C10orf10 (11716521_a_at) / Fold change /veh C10orf10 (11716521_a_at) / RFU C5orf56 (11738089_at) / Fold change /veh C5orf56 (11738089_at) / RFU CYB561 (11721691_x_at) / Fold change /veh CYB561 (11721691_x_at) / RFU ANKRD19P (11752326_a_at) / Fold change /veh ANKRD19P (11752326_a_at) / RFU OR2T12 /// OR2T33 /// OR2T8 (11738714_s_at) / Fold change /veh OR2T12 /// OR2T33 /// OR2T8 (11738714_s_at) / RFU VCAN (11748164_a_at) / Fold change /veh VCAN (11748164_a_at) / RFU JSRP1 (11732532_at) / Fold change /veh JSRP1 (11732532_at) / RFU KRTAP10-11 (11738290_x_at) / Fold change /veh KRTAP10-11 (11738290_x_at) / RFU MYO3A (11730013_a_at) / Fold change /veh MYO3A (11730013_a_at) / RFU EBF3 (11725865_a_at) / Fold change /veh EBF3 (11725865_a_at) / RFU CAMK2N1 (11719241_x_at) / Fold change /veh CAMK2N1 (11719241_x_at) / RFU C5orf56 (11738088_a_at) / Fold change /veh C5orf56 (11738088_a_at) / RFU OLFML3 (11715873_a_at) / Fold change /veh OLFML3 (11715873_a_at) / RFU LOC100653217 /// NTM (11731650_a_at) / Fold change /veh LOC100653217 /// NTM (11731650_a_at) / RFU MAPK11 (11762145_a_at) / Fold change /veh MAPK11 (11762145_a_at) / RFU FIZ1 (11724087_x_at) / Fold change /veh FIZ1 (11724087_x_at) / RFU OASL (11726364_x_at) / Fold change /veh OASL (11726364_x_at) / RFU SOX15 (11748057_x_at) / Fold change /veh SOX15 (11748057_x_at) / RFU CD79A (11719716_a_at) / Fold change /veh CD79A (11719716_a_at) / RFU HIST1H1D (11736915_at) / Fold change /veh HIST1H1D (11736915_at) / RFU CASKIN2 (11723855_a_at) / Fold change /veh CASKIN2 (11723855_a_at) / RFU LOC730098 (11760151_x_at) / Fold change /veh LOC730098 (11760151_x_at) / RFU OR4N2 (11742367_at) / Fold change /veh OR4N2 (11742367_at) / RFU PRRT2 (11749266_a_at) / Fold change /veh PRRT2 (11749266_a_at) / RFU SNX32 (11753110_a_at) / Fold change /veh SNX32 (11753110_a_at) / RFU CDHR5 (11726645_a_at) / Fold change /veh CDHR5 (11726645_a_at) / RFU RCAN1 (11760418_a_at) / Fold change /veh RCAN1 (11760418_a_at) / RFU FAM167A (11723789_a_at) / Fold change /veh FAM167A (11723789_a_at) / RFU FAM26E (11764081_at) / Fold change /veh FAM26E (11764081_at) / RFU ISYNA1 (11749810_s_at) / Fold change /veh ISYNA1 (11749810_s_at) / RFU ACY1 (11761880_at) / Fold change /veh ACY1 (11761880_at) / RFU 11764098_at / Fold change /veh 11764098_at / RFU SAMD14 (11745864_x_at) / Fold change /veh SAMD14 (11745864_x_at) / RFU NPB (11741838_a_at) / Fold change /veh NPB (11741838_a_at) / RFU TMPRSS6 (11731388_a_at) / Fold change /veh TMPRSS6 (11731388_a_at) / RFU KRTAP10-2 (11738614_at) / Fold change /veh KRTAP10-2 (11738614_at) / RFU ARHGAP8 /// PRR5-ARHGAP8 (11727945_x_at) / Fold change /veh ARHGAP8 /// PRR5-ARHGAP8 (11727945_x_at) / RFU KRTAP5-7 /// NADSYN1 (11734609_at) / Fold change /veh KRTAP5-7 /// NADSYN1 (11734609_at) / RFU RASL12 (11751679_a_at) / Fold change /veh RASL12 (11751679_a_at) / RFU CDKN2B (11736163_a_at) / Fold change /veh CDKN2B (11736163_a_at) / RFU PRF1 (11729649_at) / Fold change /veh PRF1 (11729649_at) / RFU, ZNF638 /// ZNF638-IT1 / Fold change vs veh, ZNF638 /// ZNF638-IT1 / RFU, PANK3 / Fold change vs veh, PANK3 / RFU, SH3YL1 / Fold change vs veh, SH3YL1 / RFU, ZEB2 / Fold change vs veh, ZEB2 / RFU, NRIP1 / Fold change vs veh, NRIP1 / RFU, PTTG1IP / Fold change vs veh, PTTG1IP / RFU, CAPN2 / Fold change vs veh, CAPN2 / RFU, MED14 / Fold change vs veh, MED14 / RFU, SNORA58 / Fold change vs veh, SNORA58 / RFU, C1orf63 / Fold change vs veh, C1orf63 / RFU, LRRFIP1 / Fold change vs veh, LRRFIP1 / RFU, NDUFAF7 / Fold change vs veh, NDUFAF7 / RFU, SLC12A2 / Fold change vs veh, SLC12A2 / RFU, IBTK / Fold change vs veh, IBTK / RFU, ESF1 / Fold change vs veh, ESF1 / Fold change vs veh, TMEM50B / RFU, TAOK1 / Fold change vs veh, TAOK1 / RFU, ACBD3 / Fold change vs veh, ACBD3 / RFU, TMA16 / Fold change vs veh, TMA16 / RFU, RWDD3 / Fold change vs veh, RWDD3 / RFU, BCAT1 / Fold change vs veh, BCAT1 / RFU, EDEM3 / Fold change vs veh, EDEM3 / RFU, TMEM33 / Fold change vs veh, TMEM33 / RFU, WDR75 / Fold change vs veh, WDR75 / RFU, AHCTF1 / Fold change vs veh, AHCTF1 / RFU, TFRC / Fold change vs veh, TFRC / RFU, ZDHHC17 / Fold change vs veh, ZDHHC17 / RFU, NOM1 / Fold change vs veh, NOM1 / RFU, ARL8B / Fold change vs veh, ARL8B / RFU, ZBTB11 / Fold change vs veh, ZBTB11 / RFU, TAMM41 / Fold change vs veh, TAMM41 / RFU, KIAA1704 /// LOC100996395 / Fold change vs veh, KIAA1704 /// LOC100996395 / RFU, ING1 / Fold change vs veh, ING1 / RFU, TRMT61B / Fold change vs veh, TRMT61B / RFU, FUBP3 / Fold change vs veh, FUBP3 / RFU, TP53 / Fold change vs veh, TP53 / RFU, TNKS2 / Fold change vs veh, TNKS2 / RFU, ZFP14 / Fold change vs veh, ZFP14 / RFU, ACTR2 / Fold change vs veh, ACTR2 / RFU, PPP3R1 / Fold change vs veh, PPP3R1 / RFU, PIK3R1 / Fold change vs veh, PIK3R1 / RFU, HNRNPA1 / Fold change vs veh, HNRNPA1 / RFU, RNF170 / Fold change vs veh, RNF170 / RFU, ZNF28 / Fold change vs veh, ZNF28 / RFU, RNGTT / Fold change vs veh, RNGTT / RFU, OGT / Fold change vs veh, OGT / RFU, BRD1 / Fold change vs veh, BRD1 / RFU, MARS / Fold change vs veh, MARS / RFU, ZNF655 / Fold change vs veh, ZNF655 / RFU, FAHD1 / Fold change vs veh, FAHD1 / RFU, BDP1 / Fold change vs veh, BDP1 / RFU, LRRCC1 / Fold change vs veh, LRRCC1 / RFU, ARID1A / Fold change vs veh, ARID1A / RFU, ZNF146 / Fold change vs veh, ZNF146 / RFU, ZNF330 / Fold change vs veh, ZNF330 / RFU, GPN3 / Fold change vs veh, GPN3 / RFU, C9orf123 / Fold change vs veh, C9orf123 / RFU, N4BP2L2 / Fold change vs veh, N4BP2L2 / RFU, ARFIP1 / Fold change vs veh, ARFIP1 / RFU, FAM179B / Fold change vs veh, FAM179B / RFU, BCL10 / Fold change vs veh, BCL10 / RFU, UHRF1BP1L / Fold change vs veh, UHRF1BP1L / RFU, BET1 / Fold change vs veh, BET1 / RFU, CNOT2 / Fold change vs veh, CNOT2 / RFU, ZNF268 / Fold change vs veh, ZNF268 / Fold change vs veh, ZNF507 / RFU, DGCR2 / Fold change vs veh, DGCR2 / RFU, WDSUB1 / Fold change vs veh, WDSUB1 / Fold change vs veh, HSP90B1 /// MIR3652 / RFU, ADSS / Fold change vs veh, ADSS / RFU, GK / Fold change vs veh, GK / RFU, ZNF148 / Fold change vs veh, ZNF148 / RFU, TAF9 / Fold change vs veh, TAF9 / RFU, SLC1A5 / Fold change vs veh, SLC1A5 / RFU, SLMO2 / Fold change vs veh, SLMO2 / RFU, ABCC4 / Fold change vs veh, ABCC4 / RFU, LOC101060439 /// RAP1B / Fold change vs veh, LOC101060439 /// RAP1B / RFU, RFX7 / Fold change vs veh, RFX7 / RFU, GTPBP10 / Fold change vs veh, GTPBP10 / RFU, CNEP1R1 / Fold change vs veh, CNEP1R1 / RFU, BIVM-ERCC5 /// ERCC5 / Fold change vs veh, BIVM-ERCC5 /// ERCC5 / RFU, ILF3 / Fold change vs veh, ILF3 / RFU 11762660_at / Fold change /veh 11762660_at / RFU VCAN (11757783_s_at) / Fold change /veh VCAN (11757783_s_at) / RFU DDX43 (11728927_at) / Fold change /veh DDX43 (11728927_at) / RFU KRT8 (11758188_x_at) / Fold change /veh KRT8 (11758188_x_at) / RFU NKD1 (11759106_at) / Fold change /veh NKD1 (11759106_at) / RFU SRD5A1 (11742802_a_at) / Fold change /veh SRD5A1 (11742802_a_at) / RFU TPSAB1 /// TPSB2 (11721975_s_at) / Fold change /veh TPSAB1 /// TPSB2 (11721975_s_at) / RFU GSTM3 (11746129_a_at) / Fold change /veh GSTM3 (11746129_a_at) / RFU IL23R (11737362_x_at) / Fold change /veh IL23R (11737362_x_at) / RFU TMEM51 (11727254_a_at) / Fold change /veh TMEM51 (11727254_a_at) / RFU PIWIL2 (11732686_x_at) / Fold change /veh PIWIL2 (11732686_x_at) / RFU ORM1 (11744905_x_at) / Fold change /veh ORM1 (11744905_x_at) / RFU CCDC152 (11743942_at) / Fold change /veh CCDC152 (11743942_at) / RFU ECM1 (11717891_a_at) / Fold change /veh ECM1 (11717891_a_at) / RFU IL23R (11748794_a_at) / Fold change /veh IL23R (11748794_a_at) / RFU TNFAIP8L3 (11732012_x_at) / Fold change /veh TNFAIP8L3 (11732012_x_at) / RFU MBOAT4 (11741988_at) / Fold change /veh MBOAT4 (11741988_at) / RFU 11764193_at / Fold change /veh 11764193_at / RFU TMEM53 (11763286_at) / Fold change /veh TMEM53 (11763286_at) / RFU MAGEB2 (11727129_at) / Fold change /veh MAGEB2 (11727129_at) / RFU TMEM200A (11744735_a_at) / Fold change /veh TMEM200A (11744735_a_at) / RFU CCDC152 (11751479_a_at) / Fold change /veh CCDC152 (11751479_a_at) / RFU FAM211A (11726209_a_at) / Fold change /veh FAM211A (11726209_a_at) / RFU RGS16 (11746705_a_at) / Fold change /veh RGS16 (11746705_a_at) / RFU VCAN (11755009_s_at) / Fold change /veh VCAN (11755009_s_at) / RFU RHOB (11743442_s_at) / Fold change /veh RHOB (11743442_s_at) / RFU RGS16 (11720943_a_at) / Fold change /veh RGS16 (11720943_a_at) / RFU RGS16 (11720944_at) / Fold change /veh RGS16 (11720944_at) / RFU, VPS4B / Fold change vs veh, VPS4B / RFU, CREB1 / Fold change vs veh, CREB1 / RFU, DNAJC13 / Fold change vs veh, DNAJC13 / RFU, GNAQ / Fold change vs veh, GNAQ / RFU, CDK5R1 / Fold change vs veh, CDK5R1 / RFU, ZRANB3 / Fold change vs veh, ZRANB3 / RFU, CUL4A / Fold change vs veh, CUL4A / RFU, CCNY / Fold change vs veh, CCNY / RFU, UFL1 / Fold change vs veh, UFL1 / RFU, COG3 / Fold change vs veh, COG3 / RFU, DIAPH2 / Fold change vs veh, DIAPH2 / RFU, SKA2 / Fold change vs veh, SKA2 / RFU, AFF3 / Fold change vs veh, AFF3 / RFU, LMF1 / Fold change vs veh, LMF1 / RFU, IPO11 / Fold change vs veh, IPO11 / RFU, DFFB / Fold change vs veh, DFFB / RFU, FOXP1 / Fold change vs veh, FOXP1 / RFU, CARD8 / Fold change vs veh, CARD8 / RFU, STRN3 / Fold change vs veh, STRN3 / RFU, ADK / Fold change vs veh, ADK / RFU, RASSF2 / Fold change vs veh, RASSF2 / RFU, WIPF1 / Fold change vs veh, WIPF1 / RFU, LARP1B / Fold change vs veh, LARP1B / RFU, RASA1 / Fold change vs veh, RASA1 / RFU, RB1 / Fold change vs veh, RB1 / RFU, PPFIA1 / Fold change vs veh, PPFIA1 / RFU, MAT2A / Fold change vs veh, MAT2A / RFU, CCT5 / Fold change vs veh, CCT5 / RFU, WDR92 / Fold change vs veh, WDR92 / RFU, CUX1 / Fold change vs veh, CUX1 / RFU, TTC7A / Fold change vs veh, TTC7A / RFU, TMEM135 / Fold change vs veh, TMEM135 / RFU, DEPTOR / Fold change vs veh, DEPTOR / RFU, CPM / Fold change vs veh, CPM / RFU, DNAJB6 / Fold change vs veh, DNAJB6 / RFU, CACNA2D3 / Fold change vs veh, CACNA2D3 / RFU, DTX4 / Fold change vs veh, DTX4 / RFU, TFCP2 / Fold change vs veh, TFCP2 / RFU, GMCL1 /// GMCL1P1 / Fold change vs veh, GMCL1 /// GMCL1P1 / RFU, AEBP2 / Fold change vs veh, AEBP2 / RFU, SNHG1 /// SNORD22 /// SNORD25 /// SNORD26 /// SNORD27 /// SNORD28 /// SNORD29 /// SNORD31 / Fold change vs veh, SNHG1 /// SNORD22 /// SNORD25 /// SNORD26 /// SNORD27 /// SNORD28 /// SNORD29 /// SNORD31 / Fold change (Aza/veh), C12orf56 (ProbeSet 11735607_a_at) / Fold change (ACY-1035/veh), C12orf56 (ProbeSet 11735607_a_at) / Fold change (Aza/veh), FGFR1OP (ProbeSet 11751329_s_at) / Fold change (ACY-1035/veh), FGFR1OP (ProbeSet 11751329_s_at) / Fold change (Aza/veh), VPS36 (ProbeSet 11739960_a_at) / Fold change (ACY-1035/veh), VPS36 (ProbeSet 11739960_a_at) / RFU SYPL1 (11715823_x_at) / Fold change /veh SYPL1 (11715823_x_at) / RFU IGFBP7 (11715501_s_at) / Fold change /veh IGFBP7 (11715501_s_at) / RFU REEP3 (11722064_at) / Fold change /veh REEP3 (11722064_at) / RFU IGLL1 (11728026_x_at) / Fold change /veh IGLL1 (11728026_x_at): dose or concentration left out as unconfirmed
Details: ProbeSet 11721559_s_at; LIST B

Nc1ncn([C@@H]2O[C@H](CO)[C@@H](O)[C@H]2O)c(=O)n1 [azacitidine]
RFU, ZNF638 /// ZNF638-IT1: 347.20 RFU
